Several values for one entry are separate records, joined by “and”; a condition that tells them apart may be missing. Equal values may be shown once.
Molecular target: T1, MRGPRX4 + RAMP1 (Homo sapiens, UniProt Q96LA9)
T1 construct: expressed in transfected cells; host or cells: HEK293T
Assay: IP1 accumulation, MRGPRX4 coexpressed with RAMP1
Assay type: cell-based
Parameters: key to IP1 Basal / response to agonist, X4:ramp1.I:1 / response to agonist, X4:ramp1.I:2 / response to agonist, X4:ramp1.I:0.25 / response to agonist, X4:ramp1.I:0.5: % IP1; unstimulated mock = 0%, fully stimulated MRGPRX4 = 100%
Conditions: Figure 4c-f, agonist 100µM, MRGPRX4 = 100

T1 sequence (Q96LA9 whole entry): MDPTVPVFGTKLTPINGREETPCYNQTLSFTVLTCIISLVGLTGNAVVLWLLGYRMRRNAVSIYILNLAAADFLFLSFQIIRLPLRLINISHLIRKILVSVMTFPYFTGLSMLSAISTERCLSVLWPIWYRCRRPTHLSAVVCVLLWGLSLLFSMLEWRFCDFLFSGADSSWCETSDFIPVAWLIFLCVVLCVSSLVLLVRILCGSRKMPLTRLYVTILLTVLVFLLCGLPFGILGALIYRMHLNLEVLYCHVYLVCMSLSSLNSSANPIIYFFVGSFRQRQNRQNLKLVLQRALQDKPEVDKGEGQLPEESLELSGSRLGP

`C[C@H](CCC(=O)NCCS(=O)(=O)O)[C@H]1CC[C@H]2[C@@H]3CC[C@@H]4C[C@H](O)CC[C@]4(C)[C@H]3C[C@H](O)[C@]12C` [TDCA, Taurodeoxycholic acid] was tested. Which “response to agonist, X4:ramp1.I:0.25” value (X4:ramp1 1:0.25) did it give?
The value was 91.5401 and 91.7191.

And the “response to agonist, X4:ramp1.I:0.5” value (X4:ramp1 1:0.5)?
Its value is 85.1903 and 91.5141.

What about the “response to agonist, X4:ramp1.I:1” value (X4:ramp1 1:1) of the same compound?
The value was 95.31 and 91.9832.

And the “response to agonist, X4:ramp1.I:2” value (X4:ramp1 1:2)?
The value was 89.0717 and 99.7164.
